In one assay the test system is SARS-CoV (Hanoi strain). The note with it: cited from earlier work.
In the next assay the test system is SARS-CoV (Isolate FFM-1). The settings on record: cited from earlier work.
Another assay deals with HCoV-229E. The note with it: 2% glutaraldehyde; cited from earlier work.
Another assay concerns poliovirus type 1. Format: cell-based.
The subject of a further assay is MNV. Type of assay: cell-based, Murine Norovirus (MNV).
Another assay deals with adenovirus type 5. Format: cell-based.

A value given as a limit tells only on which side of the number the result lay.

With `O=CCCCC=O` [glutaraldehyde], the “time to inactivate the virus” value is 5 min in the assay on SARS-CoV (Hanoi strain) and 2 min in the assay on SARS-CoV (Isolate FFM-1). Further, in the assay with HCoV-229E, the “effectiveness against the virus” value was “effective”.
`C=O` [formaldehyde]: the “reduction of viral titre achieved” value with poliovirus type 1 and in the assay on MNV was < 4 log10 each time. In addition, the “time after which a 4 log10 reduction is achieved” value in the assay with adenovirus type 5 is 30 minutes.

The record behind these values is patent publication US20240008482A1, “METHOD OF IN[…] VIRUS USING A GLUT[…] COMPOSITION” (priority 2021, published 2024).
